Tested on: NF-κB
Test: NF-κB luciferase reporter assay in LPS-stimulated RAW 264.7 macrophages
Assay type: cell-based
Details: Mus musculus, RAW264.7; RAW 264.7 cells stably expressing 3× NFκB response element luciferase reporter; 2 hour pretreatment, 200 ng/ml LPS for 3 hours; 6 dose point titrations in triplicate
Method: RAW 264.7 cells stably expressing a 3× NFκB response element-drive luciferase reporter were seeded into 96 well plates in sera-free medium (Optimen) 18 hours prior to compound application. Compounds of the invention were prepared by first making 100 mM stock solutions in EtOH. Stock solutions were then diluted 1:100 in low LPS FBS (Gemini BenchMark 100-106), mixed vigorously and allowed to incubate at room temperature for 30 minutes. 1:2 serial dilutions were then made in FBS supplemented with 1% EtOH, mixed vigorously, and again allowed to incubate at room temperature for 30 minutes before adding to RAW 264.7 reporter cells (final concentrations: 10% FBS, 100 uM highest compound dilution, 0.1% EtOH) for a 2 hour pretreatment prior to stimulation with LPS. Cells were then stimulated with 200 ng/ml LPS or vehicle control for 3 hours in the presence of the compounds of the invention. A set of six vehicles was left unstimulated with LPS in order to measure the assay floor. […] After the 3 h incubation period with LPS, cell viability was measured by reading fluorescence (excitation 550 nm, emission 595 nm) with a Perkin Elmer Victor V plate reader. […] Luciferase activity was measured with the Perkin Elmer Victor V plate reader. NF-κB activity was expressed as a percent of the vehicle control wells (stimulated with LPS). […]

**Q.** How did the IC50 turn out when `CC/C=C\C/C=C\C/C=C\C/C=C\C/C=C\C/C=C\CCC(=O)N1C[C@H](C)C[C@@](C)(O)[C@H](O)[C@@H](C)[C@H](O)[C@@H](C)C(=O)O[C@H](CC)[C@@](C)(O)[C@H](O)[C@H]1C` [Ia-3, (2R,3S,4R,5R,8R,10R,11R,12S,13S,14R)-6-((4Z,7Z,10Z,13Z,16Z,19Z)-docosa-4,7,10,13,16,19-hexaenoyl)-2-ethyl-3,4,10,11,13-pentahydroxy-3,5,8,10,12,14-hexamethyl-1-oxa-6-azacyclopentadecan-15-one] was run?
**A.** 18 µM
